Measurements taken from patent US5665714A, “N-substituted glycerophosphoethanolamines” (Clarion Pharmaceuticals Inc., priority 1996, dated 1997).

What was measured:
[1] = tested on: MDA-MB-231 estrogen receptor negative human breast carcinoma cell line; experiment: in vitro MDA-MB-231 cell inhibition assay (anti-tumor/antineoplastic activity, sulforhodamine B); format: cell-based; settings: MDA-MB-231, 48 hours, 0 to 100 μM, FIG. 1, read-out: marked inhibition of cell growth at concentrations above
From the text: FIG. 1 is a graphical representation of results from an in vitro MDA-MB-231 cell inhibition assay of two compounds of the invention, designated CPR 3003 and CPR 3004.
(§1) Assay for Anti-Tumor/Antineoplastic Activity
(§2) 1. Human tumor cell lines, available from the American Type Culture Collection (ATCC):
a. MDA-MB-231 (ATCC HTB 26): an estrogen receptor negative human breast carcinoma cell line (attachment dependent); and
a. for cell line 1-a: Dulbecco's Modified Eagle's Medium (DMEM) plus 10% Fetal Bovine Serum (FBS); and
(§3) 3. Standard protocol for culturing cell lines: in T-75 or T-150 flasks; 37° C.; 95% air, 5% CO2; 100% humidity.
(§4) a. Cell lines 1-a and 1-b are passaged when approximately 80% confluent; with trypsin (1 mg/mL) and EDTA (1 mM EDTA in Ca-Mg free Hank's balanced salt solution); at a 1:4 to 1:5 split.
b. […]
(§5) h. Read absorbance at 564 nm using a standard 96-well microtiter plate reader. Absorbance readings are linear with dye concentrations below 1.8 absorbance units. To reduce absorbance, decrease wavelength at which measurements are taken.
(§6) a. For a single point reading, a higher absorbance indicates a higher cell number; […]
(§7) d. Calculate CN (cell number as % of Control): [formula] where A(test compound) is absorbance with test compound present in the culture medium, A(control) is absorbance of control, and A(background) is absorbance of background;

[2] = tested on: HT-29 human colon carcinoma cell line; experiment: in vitro HT 29 cell inhibition assay (anti-tumor/antineoplastic activity, sulforhodamine B); format: cell-based; settings: HT-29, 48 hours, 0 to 100 μM, FIG. 2, read-out: marked inhibition of cell growth at concentrations above
From the text: FIG. 2 is a graphical representation of results from an in vitro HT 29 cell inhibition assay of two compounds of the invention, designated CPR 3003 and CPR 3004.
as §1, §2
b. HT-29 (ATCC HTB 38): a human colon carcinoma cell line (attachment dependent).
b. for cell line 1-b: 1:1 DMEM and Ham's F-12 (DMEM/F12) plus 10% FBS.
as §3, §4
b. All procedures are performed aseptically in a Class II biological safety cabinet using standard BL-2 containment procedures. […]
as §5, §6, §7

[3] = tested on: PAM-212 murine keratinocyte cell line; experiment: Assay for anti-psoriatic activity by inhibition of keratinocyte proliferation (PAM-212); format: cell-based, murine (BALB/c mice); settings: Mus musculus, PAM212; PAM-212, 48 hours, FIG. 3; read-out: marked inhibition of keratinocyte-proliferation at concentrations above
From the text: FIG. 3 is a graphical representation of results from an in vitro PAM-212 cell inhibition assay of two compounds of the invention, designated CPR 3003 and CPR 3004.
Assay for Anti-psoriatic Activity by Inhibition of Keratinocyte Proliferation
1. Cell line: PAM-212 murine keratinocyte cell line isolated and cultivated from newborn BALB/c mice (see S. H. Yuspa et al., Cancer Research, 40, 4694-4703, December, 1980) that appears to retain many characteristics of normal keratinocytes.
2. Culture medium: 1:1 DMEM and Ham's F-12 with 10% FBS.
3. Culture conditions are the same as those described previously in parts 3(a) and 3(b) of Example 9.
4. Methodology is the same as that described previously in part 4 of Example 9, except that, with reference to part 4 (b), cell concentration is adjusted to 1,000 cells per 100 μL (rather than 5,000 cells per 100 μL), and, with reference to part 4(e), test compounds are diluted in DMEM/F12 prior to addition to cell wells.
5. End point determination and data analysis are done as described previously in parts 5 and 6 of Example 9.

[4] = tested on: RAW 264.7 murine monocyte/macrophage line; experiment: Assay for anti-inflammatory activity by inhibition of macrophage chemiluminescence (RAW 264.7, PMA, luminol); format: cell-based; settings: 1 minute
From the text: FIG. 4 is a graphical representation of results from an in vitro RAW 264.7 cell macrophage inhibition chemiluminescence assay of two compounds of the invention, designated CPR 3003 and CPR 3004.
Assay for Anti-inflammatory Activity by Inhibition of Macrophage Chemiluminescence
The RAW 264.7 cell line (available from the ATCC under accession no. TIB 71) is a murine monocyte/macrophage line the cells of which show many of the differentiative functions of a macrophage. Like macrophages, the cells are capable of phagocytosis and undergo a respiratory burst (increased oxygen consumption) and production of oxygen radicals (e.g., superoxide) in response to appropriate activation signals. Agents that inhibit the activation of these cells in vitro, so as to inhibit the respiratory burst and corresponding production of oxygen radicals associated with the activation, are therefore inhibitors of macrophage activation and critical steps in inflammatory processes. These agents are likely, then, to be anti-inflammatories.
The respiratory burst and corresponding production of oxygen radicals that accompany macrophage activation can be measured in a variety of ways, including chemiluminescence based on the reaction of the oxygen radicals with luminol added to the culture medium (see M. A. Trush et al, 1978, "The Generation of Chemiluminescence by Phagocytic Cells." Methods in Enzymology 57: 462-494). Indeed, chemiluminescence generated from luminol in the culture medium of macrophage cell lines is recognized in the art as a marker of macrophage activation.
1. Cell line: RAW 264.7 (ATCC TIB 71);
2. Culture medium: DMEM with 10% FBS (attachment dependent);
3. Standard protocol for culturing cell lines: in T-75 or T-150 flasks; 37° C.; 95% air, 5% CO2; 100% humidity;
4. Cell lines are passaged when approximately 80% confluent with trypsin (1 mg/mL) and EDTA ([…] in Ca-Mg free Hank's balanced salt solution), at a 1:4 to 1:5 split;
5. Trypsinize the cells and count with a hemocytometer;
6. Adjust concentration of cells to approximately 1,000,000 cells per mL;
7. Suspend cells in DMEM lacking phenol red and without FBS;
8. Pipette 1 mL, into a standard luminometer cuvet (12×75), commercially available from Analytical Luminescence Laboratories (San Diego, Calif.);
9. Add luminol to final concentration of 1 μM;
10. Add test compound at concentrations of 0, 1, 3, 10, or 30 μM;
11. Add 100 nanograms of phorbol myristate acetate (PMA);
12. Wait 1 minute and read photo counts (i.e., luminescence) on a Monolight 2010 luminometer available from Analytical Luminescence Laboratories;
13. The results are represented in FIG. 4, which illustrates the marked decrease in measured luminescence by the compounds tested at concentrations above 1 μM. Results are calculated as percent of control (no test compound present);
14. The results are also presented in Table 1, which tabulates the measured luminescence units at the indicated concentration of tested compound.

[5] = tested on: PAF (Platelet Activating Factor)-induced increase in TPR (Total Pulmonary Resistance); experiment: Assay for anti-PAF activity in anesthetized guinea pigs (PAF-induced increase in total pulmonary resistance); format: in vivo, guinea pig; settings: for PAF-induced increase in TPR, % of Controls: n = 5, PAF Control 112.2
Procedure: FIG. 5 is a graphical representation of results from an in vivo antagonism of PAF (Platelet Activating Factor)-induced increase in TPR (Total Pulmonary Resistance) by the compound of the invention, designated CPR 3003.
Assay for Anti-PAF Activity in Anesthetized Guinea Pigs
Guinea pigs of 650-1000 g were used in order to facilitate catheterization of the jugular vein and carotid artery. The guinea pigs were anesthetized with 35-45 mg/kg pentobarbital sodium. When or if the recordings described below were unstable, anesthetic additions were made during the course of the intervention. The cutdown was a ventral medial incision over the cervical area so that the trachea, jugular vein and carotid artery could be cannulated. The animals were immediately attached to a volume regulated Harvard® rodent respirator, Model 683, via a tracheostomy and the respirator was set at 60 respirations per minute and a volume of 8 ml/kg to maintain a normal arterial PCO2 of approximately 40 mm Hg. Pancuronium bromide, a muscle relaxant, was then given intravenously at a dose of 0.2 mg/kg to prevent spontaneous breathing. A tube was connected to the respirator pump and the endotracheal catheter was attached to a pressure-transducing strain gauge and then to a 2-channel Gilson® physiological recorder. One channel of the recorder inscribed the pressure tracing from the airway; the second channel inscribed the pressure tracing from a similar strain gauge attached directly to a catheter inserted into the carotid artery. These two parameters were measured before and after each drug was given and at each increment in the dose response studies with each drug candidate and recorded. Total pulmonary resistance (TPR) was calculated as the difference between the expiratory pressure and inspiratory pressures with a constant volume.
After the anesthetic and muscle relaxant were given, the animal was allowed to stabilize. The airway was gently suctioned with a syringe and the lungs are briefly inflated by closing the expiratory port on the ventilator until the pressure was approximately three times resting pressure. When the pressure returned to a steady state, this TPR was considered control pressure. The dose-related increases or decreases were quantitated against these controls to determine the percent inhibition of PAF activity. Two doses of PAF were given as controls before the test compound was administered.
Decreases of TPR in a dose-related way indicate an inhibition of the constrictor activity of PAF on the airway.

tumor = settings: Andreesen, Prog. Biochem. Pharmacol. 22, 118-131; cited from earlier work

What does the source list for `CCCCCCCCCCCCCCCCCCOCC(COP(=O)(O)OCCNC1=NCCN1C1=NCCN1)OC` (stereo not shown) [CPR 3003, 1-O-n-octadecyl-2-O-methyl-glycero-3-phospho-N-[3-(2-imidazolinyl)-2-imidazolinyl]-ethanolamine]?
minimal effective concentration [1]: > 3 µM; minimal effective concentration [2]: > 3 µM; minimal effective concentration [3]: > 10 µM; measured luminescence ([4]; 1 μM test compound): 2,051,640 Luminescence Units; measured luminescence ([4]; 3 μM test compound): 755,617 Luminescence Units; measured luminescence ([4]; 10 μM test compound): 224,213 Luminescence Units; measured luminescence ([4]; 30 μM test compound): 18,228 Luminescence Units; PAF-induced increase in TPR, % of Controls ([5]; 1 μM): 110 % of Controls; PAF-induced increase in TPR, % of Controls ([5]; 10 μM): 7 % of Controls; PAF-induced increase in TPR, % of Controls ([5]; .1 μM): 232.2 % of Controls; change of PAF-induced increase in TPR ([5]; incremental doses of 0.1, 1, and 10 μM): change the PAF-induced increase in TPR in all animals

Which results are given for `CCCCCCCCCCCCCCCCCCOCC(COP(=O)(O)OCCNC1=NCCN1)OC` (stereo not shown) [CPR 3004, 1-O-n-octadecyl-2-O-methyl-glycero-3-phospho-N-(2-imidazolinyl)-ethanolamine]?
minimal effective concentration [1]: > 3 µM; minimal effective concentration [2]: > 3 µM; minimal effective concentration [3]: > 10 µM; measured luminescence ([4]; 1 μM test compound): 524,414 Luminescence Units; measured luminescence ([4]; 3 μM test compound): 134,836 Luminescence Units; measured luminescence ([4]; 10 μM test compound): 23,849 Luminescence Units; measured luminescence ([4]; 30 μM test compound): 6,128 Luminescence Units

With `CCCCCCCCCCCCCCCCCCOC[C@H](COP(=O)([O-])OCC[N+](C)(C)C)OC` [ET 18-OCH3, 1-O-octadecyl-2-O-methyl-sn-glycero-3-phosphocholine] as the compound, how does the anti-tumor activity (tumor) read?
Its anti-tumor activity is “markedly potent anti-tumor activity”.
